Source: ChEMBL document CHEMBL1697723, “A predictive ligand-based Bayesian model for human drug-induced liver injury” (Drug Metab Dispos, 2010)

Each molecule was assayed on Hepatotoxicity (assay: Human drug-induced liver injury (DILI) modelling dataset from Ekins et al). Settings: not given.

| Structure (SMILES) | Hepatotoxicity |
| --- | --- |
| NC[C@@H]1O[C@H](O[C@H]2[C@@H](O)[C@H](O[C@@H]3[C@@H](O)[C@H](N)C[C@H](N)[C@H]3O[C@H]3O[C@H](CO)[C@@H](O)[C@H](O)[C@H]3N)O[C@@H]2CO)[C@H](N)[C@@H](O)[C@@H]1O.O=S(=O)(O)O [PAROMOMYCIN SULFATE] | DILI negative (training set) |
| Fc1ccc([C@@H]2CCNC[C@H]2COc2ccc3c(c2)OCO3)cc1 [PAROXETINE] | DILI negative (training set) |
| NC1=NC(=O)C(c2ccccc2)O1 (centres undefined) [PEMOLINE] | DILI positive (test set) |
| CC(C)(C)NC[C@H](O)COc1ccccc1C1CCCC1.CC(C)(C)NC[C@H](O)COc1ccccc1C1CCCC1.O=S(=O)(O)O [PENBUTOLOL SULFATE] | DILI positive (test set) |
| CC1(C)S[C@@H]2[C@H](NC(=O)Cc3ccccc3)C(=O)N2[C@H]1C(=O)[O-].[Na+] [PENICILLIN G SODIUM] | DILI positive (training set) |
| C1CCC(C(CC2CCCCN2)C2CCCCC2)CC1 (centres undefined) [PERHEXILINE] | DILI positive (training set) |
| CC1(C)C(C=C(Cl)Cl)C1C(=O)OCc1cccc(Oc2ccccc2)c1 (centres undefined) [PERMETHRIN] | DILI negative (test set) |
| CCOc1ccc(NC(C)=O)cc1 [PHENACETIN] | DILI positive (training set) |
| Cl.Nc1ccc(/N=N/c2ccccc2)c(N)n1 [PHENAZOPYRIDINE HYDROCHLORIDE] | DILI positive (training set) |
| c1ccc2c(c1)Nc1ccccc1S2 [PHENOTHIAZINE] | DILI positive (test set) |
| CC(COc1ccccc1)N(CCCl)Cc1ccccc1.Cl (centres undefined) [PHENOXYBENZAMINE HYDROCHLORIDE] | DILI negative (training set) |
| CS(=O)(=O)O.Cc1ccc(N(CC2=NCCN2)c2cccc(O)c2)cc1 [PHENTOLAMINE MESYLATE] | DILI positive (training set) |
| S=C=Nc1ccccc1 [PHENYLISOTHIOCYANATE] | DILI positive (test set) |
| CC(N)C(O)c1ccccc1.Cl (centres undefined) [PHENYLPROPANOLAMINE HYDROCHLORIDE] | DILI negative (training set) |
| CNC(=O)Oc1ccc2c(c1)[C@]1(C)CCN(C)[C@@H]1N2C [PHYSOSTIGMINE] | DILI negative (training set) |
| CC[C@@H]1C(=O)OC[C@@H]1Cc1cncn1C [PILOCARPINE] | DILI negative (training set) |
| O=c1[nH]c2ccccc2n1C1CCN(CCCC(c2ccc(F)cc2)c2ccc(F)cc2)CC1 [PIMOZIDE] | DILI negative (test set) |
| CC(N/C(=N\C#N)Nc1ccncc1)C(C)(C)C (centres undefined) [PINACIDIL ANHYDROUS] | DILI negative (training set) |
| CC(C)NCC(O)COc1cccc2[nH]ccc12 (centres undefined) [PINDOLOL] | DILI negative (training set) |
| CCc1ccc(CCOc2ccc(CC3SC(=O)NC3=O)cc2)nc1 (centres undefined) [PIOGLITAZONE] | DILI negative (test set) |
| CN1C(C(=O)Nc2ccccn2)=C(O)c2ccccc2S1(=O)=O [PIROXICAM] | DILI positive (training set) |
| CC(C(=O)O)c1ccc(N2CC=CC2)c(Cl)c1 (centres undefined) [PIRPROFEN] | DILI positive (test set) |
| C[C@]12C=CC(=O)C=C1CC[C@@H]1[C@@H]2C(=O)C[C@@]2(C)[C@H]1CC[C@]2(O)C(=O)CO [PREDNISONE] | DILI negative (training set) |
| COc1cc(NC(C)CCCN)c2ncccc2c1.O=P(O)(O)O.O=P(O)(O)O (centres undefined) [PRIMAQUINE PHOSPHATE] | DILI negative (training set) |
| CCC1(c2ccccc2)C(=O)NCNC1=O [PRIMIDONE] | DILI negative (training set) |
| CCCN(CCC)S(=O)(=O)c1ccc(C(=O)O)cc1 [PROBENECID] | DILI negative (test set) |
| CC(C)(Sc1cc(C(C)(C)C)c(O)c(C(C)(C)C)c1)Sc1cc(C(C)(C)C)c(O)c(C(C)(C)C)c1 [PROBUCOL] | DILI negative (test set) |
| CNNCc1ccc(C(=O)NC(C)C)cc1.Cl [PROCARBAZINE HYDROCHLORIDE] | DILI positive (training set) |

| Structure (SMILES) | Hepatotoxicity |
| --- | --- |
| CN1CCN(CCCN2c3ccccc3Sc3ccc(Cl)cc32)CC1.O=C(O)/C=C\C(=O)O.O=C(O)/C=C\C(=O)O [PROCHLORPERAZINE MALEATE] | DILI positive (test set) |
| CC(=O)[C@H]1CC[C@H]2[C@@H]3CCC4=CC(=O)CC[C@]4(C)[C@H]3CC[C@]12C [PROGESTERONE] | DILI positive (training set) |
| CN(C)CCCN1c2ccccc2Sc2ccccc21.Cl [PROMAZINE HYDROCHLORIDE] | DILI negative (training set) |
| CC(CN1c2ccccc2Sc2ccccc21)N(C)C.Cl (centres undefined) [PROMETHAZINE HYDROCHLORIDE] | DILI negative (training set) |
| CC(C)NCC(O)COc1cccc2ccccc12 (centres undefined) [PROPRANOLOL] | DILI negative (test set) |
| CN[C@@H](C)[C@@H](O)c1ccccc1.Cl [PSEUDOEPHEDRINE HYDROCHLORIDE] | DILI negative (training set) |
| COc1ccc(C[C@H](N)C(=O)N[C@H]2[C@@H](O)[C@H](n3cnc4c(N(C)C)ncnc43)O[C@@H]2CO)cc1 [PUROMYCIN] | DILI positive (training set) |
| NC(=O)c1cnccn1 [PYRAZINAMIDE] | DILI positive (training set) |
| CN(C)C(=O)Oc1ccc[n+](C)c1.[Br-] [PYRIDOSTIGMINE BROMIDE] | DILI negative (training set) |
| CCc1nc(N)nc(N)c1-c1ccc(Cl)cc1 [PYRIMETHAMINE] | DILI positive (training set) |
| C=C[C@H]1C[N@@]2CC[C@H]1C[C@@H]2[C@@H](O)c1ccnc2ccc(OC)cc12 [QUINIDINE] | DILI positive (training set) |
| C=C[C@H]1CN2CC[C@H]1C[C@H]2[C@H](O)c1ccnc2ccc(OC)cc12.C=C[C@H]1CN2CC[C@H]1C[C@H]2[C@H](O)c1ccnc2ccc(OC)cc12.O.O.O=S(=O)(O)O [QUININE SULFATE] | DILI positive (test set) |
| C=C[C@H]1C[N@@]2CC[C@H]1C[C@H]2[C@H](O)c1ccnc2ccc(OC)cc12 [QUININE] | DILI positive (training set) |
| CCO[C@@H](Cc1ccc(OCCN2c3ccccc3Oc3ccccc32)cc1)C(=O)O [RAGAGLITAZAR] | DILI negative (test set) |
| O=C(c1ccc(OCCN2CCCCC2)cc1)c1c(-c2ccc(O)cc2)sc2cc(O)ccc12 [RALOXIFENE] | DILI negative (training set) |
| CNC(=C[N+](=O)[O-])NCCSCc1ccc(CN(C)C)o1 [RANITIDINE] | DILI negative (training set) |
| NC(=O)c1ncn([C@@H]2O[C@H](CO)[C@@H](O)[C@H]2O)n1 [RIBAVIRIN] | DILI negative (training set) |
| CO[C@H]1/C=C/O[C@@]2(C)Oc3c(C)c(O)c4c(O)c(c(/C=N/N5CCN(C)CC5)c(O)c4c3C2=O)NC(=O)/C(C)=C\C=C\[C@H](C)[C@H](O)[C@@H](C)[C@@H](O)[C@@H](C)[C@H](OC(C)=O)[C@@H]1C [RIFAMPIN] | DILI negative (test set) |
| Nc1nc2ccc(OC(F)(F)F)cc2s1 [RILUZOLE] | DILI positive (training set) |
| Cc1nc2n(c(=O)c1CCN1CCC(c3noc4cc(F)ccc34)CC1)CCCC2 [RISPERIDONE] | DILI positive (training set) |
| CC(C)c1nc(CN(C)C(=O)N[C@H](C(=O)N[C@@H](Cc2ccccc2)C[C@H](O)[C@H](Cc2ccccc2)NC(=O)OCc2cncs2)C(C)C)cs1 [RITONAVIR] | DILI positive (test set) |
| CN(CCOc1ccc(CC2SC(=O)NC2=O)cc1)c1ccccn1 (centres undefined) [ROSIGLITAZONE] | DILI negative (test set) |
| C=C(C)[C@H]1Cc2c(ccc3c2O[C@@H]2COc4cc(OC)c(OC)cc4[C@@H]2C3=O)O1 [ROTENONE] | DILI positive (test set) |
| OC[C@@H](O)[C@@H](O)[C@H](O)[C@@H](O)CO [SORBITOL] | DILI negative (training set) |
| CC(=O)S[C@@H]1CC2=CC(=O)CC[C@]2(C)[C@H]2CC[C@@]3(C)[C@@H](CC[C@@]34CCC(=O)O4)[C@H]12 [SPIRONOLACTONE] | DILI positive (training set) |
| Cc1cn([C@H]2C=C[C@@H](CO)O2)c(=O)[nH]c1=O [STAVUDINE] | DILI positive (training set) |
| CN(N=O)C(=O)N[C@@H](C=O)[C@@H](O)[C@H](O)[C@H](O)CO [STREPTOZOCIN] | DILI negative (test set) |

Same assay, conditions: Liver

| Structure (SMILES) | Hepatotoxicity |
| --- | --- |
| NNCCc1ccccc1 [PHENELZINE] | DILI negative (training set) |
| O=C1NC(=O)C(c2ccccc2)(c2ccccc2)N1 [PHENYTOIN] | DILI positive (training set) |
| CC(C)c1cccc(C(C)C)c1O [PROPOFOL] | DILI negative (test set) |
| Cc1ncc(CO)c(CO)c1O [PYRIDOXINE] | DILI negative (training set) |
| CO[C@H]1/C=C/O[C@@]2(C)Oc3c(C)c(O)c4c(c3C2=O)C2=NC3(CCN(CC(C)C)CC3)NC2=C(NC(=O)/C(C)=C\C=C\[C@H](C)[C@H](O)[C@@H](C)[C@@H](O)[C@@H](C)[C@H](OC(C)=O)[C@@H]1C)C4=O [RIFABUTIN] | DILI positive (test set) |
| CC(C)(C)NC(=O)[C@@H]1C[C@@H]2CCCC[C@@H]2CN1C[C@@H](O)[C@H](Cc1ccccc1)NC(=O)[C@H](CC(N)=O)NC(=O)c1ccc2ccccc2n1.CS(=O)(=O)O [SAQUINAVIR MESYLATE] | DILI positive (test set) |
| CN[C@H]1CC[C@@H](c2ccc(Cl)c(Cl)c2)c2ccccc21 [SERTRALINE] | DILI negative (training set) |
| CN[C@@H]1[C@H](O[C@H]2[C@H](O[C@H]3[C@H](O)[C@@H](O)[C@H](N=C(N)N)[C@@H](O)[C@@H]3N=C(N)N)O[C@@H](C)[C@]2(O)C=O)O[C@@H](CO)[C@H](O)[C@H]1O.CN[C@@H]1[C@H](O[C@H]2[C@H](O[C@H]3[C@H](O)[C@@H](O)[C@H](N=C(N)N)[C@@H](O)[C@@H]3N=C(N)N)O[C@@H](C)[C@]2(O)C=O)O[C@@H](CO)[C@H](O)[C@H]1O.O=S(=O)(O)O.O=S(=O)(O)O.O=S(=O)(O)O [STREPTOMYCIN SULFATE] | DILI negative (training set) |
| [H]/N=C(/N)N[C@H]1[C@H](O)[C@@H](O)[C@H](O[C@@H]2O[C@@H](C)[C@](O)(C=O)[C@H]2O[C@@H]2O[C@@H](CO)[C@H](O)[C@@H](O)[C@@H]2NC)[C@@H](N/C(N)=N\[H])[C@@H]1O [STREPTOMYCIN] | DILI negative (test set) |
